Assay results: the Deep4Chem optical property database

Experiment: solvent given as SMILES

## O=C(c1ccncc1)c1ccc(-n2c3ccc(-n4c5ccccc5c5ccccc54)cc3c3cc(-n4c5ccccc5c5ccccc54)ccc32)cc1
In C1CCOC1
  absorption maximum: 341.83 nm
In Cc1ccccc1
  absorption maximum: 360.08 nm
In ClCCl
  absorption maximum: 341.83 nm

## c1ccc(-c2cc(-c3ccccc3)[o+]c(-c3ccccc3)c2)cc1
In CC#N
  absorption maximum: 403 nm
In ClCCCl
  absorption maximum: 420 nm

## N#Cc1c(-n2c3ccccc3c3cc(Br)ccc32)c(-n2c3ccccc3c3cc(Br)ccc32)c(C#N)c(-n2c3ccccc3c3cc(Br)ccc32)c1-n1c2ccccc2c2cc(Br)ccc21
In Cc1ccccc1
  absorption maximum: 337 nm

## COc1cc(OC)c2cc(C#N)c(=N)oc2c1
In ClCCl
  absorption maximum: 372 nm

## N#C/C(=C\c1ccc(Cl)cc1)c1nc(-c2ccccc2)c(-c2ccccc2)s1
In CC#N
  absorption maximum: 365 nm

## C=Cc1cc2ccc(OC(=O)c3ccccc3)cc2oc1=O
In CC#N
  absorption maximum: 328 nm

## CCCC1=Cc2nc1ccc1[nH]c(cc1CCC)c1nc(c(O)cc3[nH]c2cc3CCC)C(CCC)=C1
In Cc1ccccc1
  absorption maximum: 677 nm

## CCCC1(CCC)c2ccccc2-c2ccccc21
In C1CCCCC1
  absorption maximum: 304 nm

## Cc1ccc(/N=C2\N=C(N)c3cccc4cccc2c34)cc1
In ClCCl
  absorption maximum: 349 nm

## COC(=O)/C=C/c1sc(-c2ccc(N(C)C)cc2)cc1N
In CC#N
  absorption maximum: 419 nm

## C(=C\c1ncc(-c2ccc(OCc3ccccc3)c(OCc3ccccc3)c2)o1)/c1cccc(N2CCN(c3ccccc3)CC2)c1
In ClCCl
  absorption maximum: 355 nm

## CC(C)(C)c1ccc2c(c1)c1cc(C(C)(C)C)ccc1n2-c1cccc(-n2c3ccc(C(C)(C)C)cc3c3cc(C(C)(C)C)ccc32)c1C#N
In Cc1ccccc1
  absorption maximum: 367 nm

## O=C1c2ccccc2C2=Cc3cc4c(cc3B(O)N12)OCO4
In CC#N
  absorption maximum: 392 nm
In CO
  absorption maximum: 394 nm
In CS(C)=O
  absorption maximum: 396 nm
In ClC(Cl)Cl
  absorption maximum: 397 nm

## CN1C(=O)/C(=C/c2ccncc2)N=C1/C=C/c1ccccc1
In C1COCCO1
  absorption maximum: 411 nm
In CC#N
  absorption maximum: 408 nm
In CCO
  absorption maximum: 411 nm
In CCOC(C)=O
  absorption maximum: 408 nm
In O
  absorption maximum: 408 nm

## O=Cc1cc(C=O)c2ccc3c(N4CCCCC4)cc(N4CCCCC4)c4ccc1c2c43
In C1COCCO1
  absorption maximum: 512 nm
In CC#N
  absorption maximum: 525 nm
In CC(C)=O
  absorption maximum: 521 nm
In CCCCCC
  absorption maximum: 498 nm
In CCO
  absorption maximum: 522 nm
In CCOC(C)=O
  absorption maximum: 514 nm
In CO
  absorption maximum: 523 nm
In CS(C)=O
  absorption maximum: 535 nm
In Cc1ccccc1
  absorption maximum: 516 nm
In ClCCl
  absorption maximum: 534 nm

## CCCCCCCCCCOc1cc(OCCCCCCCCCC)cc(C2=C3C(C)=CC(/C=C/c4ccc(OC)cc4)=[N+]3[B-](F)(F)n3c(/C=C/c4ccc(OC)cc4)cc(C)c32)c1
In ClC(Cl)Cl
  absorption maximum: 645 nm

## CCCCCCCN1C(=CC2=C([O-])C(=CC3=[N+](CCCCCCC)c4ccccc4C3(C)C)C2=C(C#N)C#N)C(C)(C)c2ccccc21
In C1COCCO1
  absorption maximum: 689 nm
In CCO
  absorption maximum: 673 nm
In CN(C)C=O
  absorption maximum: 681 nm
In ClC(Cl)Cl
  absorption maximum: 685 nm

## N#Cc1ccc(/C=C2\C=C(c3ccccc3)NC2=O)cc1
In C1COCCO1
  absorption maximum: 438 nm

## O=C1[C@@H]2[C@H](C(=O)N1c1ccc3cc4ccccc4cc3c1)[C@@H]1C=C[C@H]2C1
In ClC(Cl)Cl
  absorption maximum: 380 nm

## CC(=O)OC[C@H]1O[C@@H](OCC#Cc2ccc(C3=C4C(C)=CC(/C=C/c5ccc([N+](C)(C)C)cc5)=[N+]4[B-](F)(F)n4c(/C=C/c5ccc([N+](C)(C)C)cc5)cc(C)c43)cc2)[C@H](OC(C)=O)C(OC(C)=O)[C@@H]1OC(C)=O (stereo partly specified)
In CC#N
  absorption maximum: 618 nm

## C[P+]1(c2ccccc2)C2=C(c3ccccc31)S(=O)(=O)c1ccccc12 (stereo unspecified)
In CC#N
  absorption maximum: 388 nm
In CCO
  absorption maximum: 319 nm
In ClCCl
  absorption maximum: 395 nm

## CC1=CC(c2ccc3ccccc3c2)=[O+][B-]2(OC(=O)C(=O)O2)O1
In CC#N
  absorption maximum: 400 nm
In ClC(Cl)(Cl)Cl
  absorption maximum: 400 nm

## N#Cc1c(C#N)c2cc(Br)ccc2c2ccc(Br)cc12
In ClC(Cl)Cl
  absorption maximum: 350 nm

## O=c1cc2c(-c3c(O)c4cccc5ccc6oc(=O)cc3c6c54)c(O)c3cccc4ccc(o1)c2c43
In CC1CCCO1
  absorption maximum: 486 nm

## CC1=CC2=C3C(=C4C(C)=C(c5ccc(-c6nc(-c7ccccc7)c(-c7ccccc7)[nH]6)cc5)S[C@@]4(C)[C@]2(C)S1)C(F)(F)C(F)(F)C3(F)F
In C1CCOC1
  absorption maximum: 546 nm

## Cc1cc(C)c(B(c2cc(-c3ccccc3)sc2-c2sc(-c3ccccc3)cc2P(=O)(c2ccccc2)c2ccccc2)c2c(C)cc(C)cc2C)c(C)c1
In CO
  absorption maximum: 392 nm

## CCCCCCC(CCCCCC)N1C(=O)c2cccc3c(-c4ccc(N(C)C)cc4)ccc(c23)C1=O
In CCCCCC
  absorption maximum: 401.2 nm
In CCCCCCCCCCCCCC
  absorption maximum: 403.8 nm
In CCCCCCCCCCCO
  absorption maximum: 428.6 nm
In CCCCO
  absorption maximum: 430.2 nm
In CN(C)C=O
  absorption maximum: 433.8 nm
In Cc1ccccc1
  absorption maximum: 418.2 nm
In ClC(Cl)Cl
  absorption maximum: 426.2 nm

## Cc1ccc(C)cc1
In C1CCCCC1
  absorption maximum: 262.88 nm

## O=C1c2ccccc2-c2c(-c3ccccc3O)[nH]c(=O)n21
In CC#N
  absorption maximum: 393 nm
In CO
  absorption maximum: 396 nm
In ClCCl
  absorption maximum: 394 nm

## Cc1cc(C#N)ccc1N1c2ccccc2C(c2ccccc2)(c2ccccc2)c2ccccc21
In Cc1ccccc1
  absorption maximum: 349 nm

## CCCCOc1c(C=C2Sc3ccccc3N2C)c(=O)c1=O
In CCO
  absorption maximum: 442 nm

## CCCCCCOc1ccc(-c2ccc(/C=C/c3cc(/C=C/c4ccc(-c5ccc(OCCCCCC)cc5)cc4)ncn3)cc2)cc1
In ClCCl
  absorption maximum: 373 nm

## CCCCCCCCOc1cc(/C=C/c2cc[n+](Cc3ccc(C)cc3)cc2)c(OCCCCCCCC)cc1/C=C/c1cc[n+](Cc2ccc(C)cc2)cc1
In ClCCl
  absorption maximum: 490 nm

## O=C(c1ccc(N2c3ccccc3Oc3ccccc32)cc1)c1ccc2sc3ccccc3c2c1
In C1CCOC1
  absorption maximum: 312 nm

## O=C(O)c1ccccc1-c1nc(-c2ccccc2)c2ccccn12
In CC#N
  absorption maximum: 357 nm

## COc1ccc(/C=C/c2ccccc2)cc1OC
In CC#N
  absorption maximum: 321 nm

## C1=Cc2ccccc2C(=Cc2ccc(-c3cc(-c4ccc(C=C5c6ccccc6C=Cc6ccccc65)cc4)cc(-c4ccc(C=C5c6ccccc6C=Cc6ccccc65)cc4)c3)cc2)c2ccccc21
In C1CCOC1
  absorption maximum: 325 nm

## CCCCCCOc1ccc(N(c2ccc(OCCCCCC)cc2)c2ccc(-c3sc(-c4ccc(N(c5ccc(OCCCCCC)cc5)c5ccc(OCCCCCC)cc5)cc4)c4nc(C(=O)OCC)c(C(=O)OCC)nc34)cc2)cc1
In ClCCl
  absorption maximum: 665 nm

## COc1ccc(-c2cc3c(s2)c(C(=O)c2ccccc2)cc(=O)n3Cc2ccccc2)cc1
In CC#N
  absorption maximum: 406 nm
In ClCCl
  absorption maximum: 416 nm

## Oc1ccc2ccccc2c1/C=N/c1cc2ccccc2cc1/N=C/c1c(O)ccc2ccccc12
In CC#N
  absorption maximum: 474 nm

## c1ccc(N(c2ccccc2)c2ccc(-c3ccc(-c4ccc(-c5ccc(-c6ccc(N(c7ccccc7)c7ccccc7)cc6)s5)c5nsnc45)s3)cc2)cc1
In ClC(Cl)Cl
  absorption maximum: 530 nm

## CCc1c(C(=O)OC)c(C(=O)OC)c2ccc(-c3ccccc3)nn12
In C1CCCCC1
  absorption maximum: 399.4 nm

## c1ccc2c(-n3cnc4ccccc43)cccc2c1
In C1CCCCC1
  absorption maximum: 283 nm
In C1CCOC1
  absorption maximum: 282 nm
In CC#N
  absorption maximum: 286 nm
In CCO
  absorption maximum: 284 nm
In CCOC(C)=O
  absorption maximum: 283 nm
In CCOCC
  absorption maximum: 284 nm
In CO
  absorption maximum: 284 nm
In Cc1ccccc1
  absorption maximum: 282 nm
In ClC(Cl)Cl
  absorption maximum: 285 nm

## CC1(C)c2ccccc2N(c2ccc3c(c2)S(=O)(=O)c2cc(N4c5ccccc5C(C)(C)c5ccccc54)ccc2C3(C)C)c2ccccc21
In ClCCl
  absorption maximum: 282 nm

## COCCOCCOCCOCC(COCCOCCOCCOC)Oc1cc(/C=C/c2ccc(C=C3C(=O)c4ccccc4C3=O)cc2)c(OC(COCCOCCOCCOC)COCCOCCOCCOC)cc1/C=C/c1ccc(C=C2C(=O)c3ccccc3C2=O)cc1
In ClCCl
  absorption maximum: 489 nm

## CCCCc1ccc(-n2c3c4cc(F)ccc4nc(-c4ccc(OC)cc4)c3c3c2c2c(-c4ccc(OC)cc4)nc4ccc(F)cc4c2n3-c2ccc(CCCC)cc2)cc1
In ClC(Cl)Cl
  absorption maximum: 305 nm

## CCN(CC)c1ccc(-c2ccc(-c3nc(N4CCOCC4)c4ccccc4n3)s2)cc1
In CC#N
  absorption maximum: 401 nm
In Cc1ccccc1
  absorption maximum: 405 nm

## O=c1oc2ccccc2cc1/C=C/c1ccc([N+](=O)[O-])cc1
In CC#N
  absorption maximum: 371 nm

## C[Si](C)(C)c1ccc(-c2ccc(-c3ccc(-c4ccc(-c5ccc([Si](C)(C)C)cc5)cc4)c4nsnc34)cc2)cc1
In C1CCOC1
  absorption maximum: 401 nm

## Cc1ccc(-c2c3nc(c(-c4ccc(C)cc4)c4ccc([nH]4)c(-c4ccc(C)cc4)c4nc(c(-c5ccc(C)cc5)c5ccc2[nH]5)C=C4N2CCOCC2)C=C3)cc1
In CS(C)=O
  absorption maximum: 653 nm

## COc1cccc2c1-c1ccccc1C2=O
In C1CCCCC1
  absorption maximum: 420 nm
In CC#N
  absorption maximum: 432 nm
In CCO
  absorption maximum: 432 nm

## O=c1cc(-c2nc3ccccn3c2NC2CCCCC2)occ1OCc1ccccc1
In ClCCl
  absorption maximum: 357 nm

## CN(C)c1cccc2c1ccc1c(=O)oc(-c3ccc(C(F)(F)F)cc3)cc12
In CC(C)=O
  absorption maximum: 392 nm
In CCCCCCCCO
  absorption maximum: 395 nm
In CCCCO
  absorption maximum: 394 nm
In CCCO
  absorption maximum: 393 nm
In CCO
  absorption maximum: 393 nm
In CCOC(C)=O
  absorption maximum: 393 nm
In CN(C)C=O
  absorption maximum: 395 nm
In CO
  absorption maximum: 391 nm
In ClC(Cl)Cl
  absorption maximum: 395 nm

## CN(C)c1ccc2nc(-c3ccccc3)c(=O)oc2c1
In c1ccccc1
  absorption maximum: 436 nm

## COC(=O)C1=C(C(=O)OC)C2(c3ccccc3-c3ccccc32)[C@@H](c2ccc([N+](=O)[O-])cc2)C=C2c3cc(OC)c(OC)cc3CCN21
In ClCCl
  absorption maximum: 310 nm

## O=C(O)c1ccc2ccc3cccc4ccc1c2c34
In C1CCOC1
  absorption maximum: 379 nm
In CC#N
  absorption maximum: 379 nm
In CCCCCC
  absorption maximum: 381 nm
In CCO
  absorption maximum: 340 nm
In CN(C)C=O
  absorption maximum: 377 nm
In CO
  absorption maximum: 339 nm
In Cc1ccccc1
  absorption maximum: 382 nm
In ClCCl
  absorption maximum: 382 nm
